# Literature values as cited in patent publication US20080108542A1, “Perfume Compositions” (priority 2005, published 2008).
# Conditions: 25° C.; data from literature or estimation software
row,Structure (SMILES),SVP (saturated vapour pressure) class
1,CC(C)CC1CCCC(C)(O)C1 (centres unmarked) [1-METHYL-3-(2-METHYLPROPYL)CYCLOHEXANOL],& (SVPs in the range of 25 to 125 micron Hg)
2,"CC1=CC(C)C(C=O)CC1 (centres unmarked) [2,4-DIMETHYL-3-CYCLOHEXENE-1-CARBOXALDEHYDE]",&& (SVPs greater than 125 micron Hg)
3,"CCCCC1OC(C)CC(C)(C)O1 (centres unmarked) [2-BUTYL-4,4,6-TRIMETHYL-1,3-DIOXAN]",&& (SVPs greater than 125 micron Hg)
4,CCCCCCC1CCCC1=O (centres unmarked) [2-HEXYL-CYCLOPENTANONE],& (SVPs in the range of 25 to 125 micron Hg)
5,"C=CCOC(=O)COCC(C)CC (centres unmarked) [2-METHYLBUTYLOXYACETIC ACID, 2-PROPENYL ESTER]",& (SVPs in the range of 25 to 125 micron Hg)
6,CCCCCCCCCC(C)C=O (centres unmarked) [2-METHYLUNDECANAL],& (SVPs in the range of 25 to 125 micron Hg)
7,CCCCCCCC1CCCO1 (centres unmarked) [2-N-HEPTYLTETRAHYDROFURAN],&& (SVPs greater than 125 micron Hg)
8,"COC1CC2CC1C1CC=CC21 (centres unmarked) [8-METHOXY-TRICYCLO[5.2.1.0{2,6}]DEC-3-ENE]",&& (SVPs greater than 125 micron Hg)
9,"CC/C=C/CC/C=C/C#N [(2E,6E)-NONA-2,6-DIENENITRILE]",& (SVPs in the range of 25 to 125 micron Hg)
10,CC1=CCC(C(C)(C)O)CC1 (stereo not drawn) [ALPHA-TERPINEOL],& (SVPs in the range of 25 to 125 micron Hg)
11,"CCOC(=O)C1=C(C)C=CCC1(C)C [ETHYL 2,6,6-TRIMETHYLCYCLOHEXA-1,3-DIENE-1-CARBOXYLATE]",& (SVPs in the range of 25 to 125 micron Hg)
12,CC(=O)OC1CCC(C(C)(C)C)CC1 (centres unmarked) [PARA TERT.BUTYL CYCLOHEXYL ACETATE],& (SVPs in the range of 25 to 125 micron Hg)
13,CCC(C)(O)CCCC(C)C (centres unmarked) [TETRAHYDROLINALOL],&& (SVPs greater than 125 micron Hg)
14,CCCCC/C=C/CCC=O [TRANS-4-DECENAL],&& (SVPs greater than 125 micron Hg)
